Experiment in all cases: biochemical
Design in all cases: KINOMEscan competition binding panel (Eurofins DiscoverX), single concentration, % inhibition
Settings in all cases: read-out: 7 at 1 µM % inhibition

In assay [1] the target is ACVRL1 (Homo sapiens, UniProt P37023). The method in brief:
(§1)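 KINOMEscan binding panel of >400 kinases, run by Eurofins DiscoverX, with compounds tested at a single concentration of 1 µM.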

Assay [2] has as its target EGFR(L861Q) (Homo sapiens, UniProt P00533, L861Q). In a few lines:
as §1

The target in assay [3] is HASPIN (Homo sapiens, UniProt Q8TF76). The method in brief:
as §1

Assay [4] concerns the target T1, PIP5K2C (Homo sapiens, UniProt Q8TBX8).
T1 construct: gene PIP4K2C
In a few lines: as §1

In assay [5] the target is CAMK2D (Homo sapiens, UniProt Q13557). The method in brief:
as §1

Assay [6] concerns the target CDK7 (Homo sapiens, UniProt P50613). In a few lines:
as §1

Assay [7] addresses ZAP70 (Homo sapiens, UniProt P43403). The method in brief:
as §1

Assay [8] has as its target FLT1 (Homo sapiens, UniProt P17948). The method in brief: as §1
Assay [9] deals with CLK4 (Homo sapiens, UniProt Q9HAZ1). The method in brief: as §1
For assay [10], the target named is T2, SNARK (Homo sapiens, UniProt Q9H093).
T2 construct: gene NUAK2
The method in brief: as §1

Assay [11] deals with FER (Homo sapiens, UniProt P16591). In a few lines:
as §1

Assay [12] concerns the target PIK3C2G (Homo sapiens, UniProt O75747). The method in brief: as §1
The target in assay [13] is SLK (Homo sapiens, UniProt Q9H2G2). In a few lines: as §1
SLK, sequence (Q9H2G2 whole entry): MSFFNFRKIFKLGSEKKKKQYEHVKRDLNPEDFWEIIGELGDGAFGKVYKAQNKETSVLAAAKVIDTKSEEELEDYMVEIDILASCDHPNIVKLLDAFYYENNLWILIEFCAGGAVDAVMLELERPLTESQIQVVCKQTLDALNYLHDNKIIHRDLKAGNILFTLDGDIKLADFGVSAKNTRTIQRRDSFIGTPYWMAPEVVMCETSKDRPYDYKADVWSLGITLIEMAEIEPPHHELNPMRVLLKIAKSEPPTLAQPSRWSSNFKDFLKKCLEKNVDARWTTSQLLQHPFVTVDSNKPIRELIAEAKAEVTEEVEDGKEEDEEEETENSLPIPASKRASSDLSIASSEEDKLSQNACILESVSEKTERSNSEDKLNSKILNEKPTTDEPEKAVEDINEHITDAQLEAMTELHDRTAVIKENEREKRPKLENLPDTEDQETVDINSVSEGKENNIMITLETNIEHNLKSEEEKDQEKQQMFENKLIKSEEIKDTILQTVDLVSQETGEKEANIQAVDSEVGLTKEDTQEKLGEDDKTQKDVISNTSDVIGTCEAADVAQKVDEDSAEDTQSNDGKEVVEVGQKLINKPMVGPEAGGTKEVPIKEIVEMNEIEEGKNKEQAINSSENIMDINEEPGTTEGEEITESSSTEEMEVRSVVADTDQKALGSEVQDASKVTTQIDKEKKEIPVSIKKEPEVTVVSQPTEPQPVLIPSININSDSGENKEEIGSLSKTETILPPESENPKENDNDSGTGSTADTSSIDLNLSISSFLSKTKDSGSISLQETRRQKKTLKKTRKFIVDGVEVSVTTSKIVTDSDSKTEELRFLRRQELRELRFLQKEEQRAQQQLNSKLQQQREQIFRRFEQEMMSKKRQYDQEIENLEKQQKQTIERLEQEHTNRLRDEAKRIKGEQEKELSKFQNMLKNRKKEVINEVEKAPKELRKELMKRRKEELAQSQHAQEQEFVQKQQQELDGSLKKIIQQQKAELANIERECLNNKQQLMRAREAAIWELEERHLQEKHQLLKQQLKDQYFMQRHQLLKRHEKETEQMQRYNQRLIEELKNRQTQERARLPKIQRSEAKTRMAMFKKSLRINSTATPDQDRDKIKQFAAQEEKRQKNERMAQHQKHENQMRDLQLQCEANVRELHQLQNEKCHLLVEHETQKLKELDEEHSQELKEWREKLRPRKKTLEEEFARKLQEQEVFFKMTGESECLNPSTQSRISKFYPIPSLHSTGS
Assay [14] has as its target PIM2 (Homo sapiens, UniProt Q9P1W9). The method in brief:
as §1

Assay [15] deals with ULK1 (Homo sapiens, UniProt O75385). In a few lines: as §1
ULK1, sequence (O75385 whole entry): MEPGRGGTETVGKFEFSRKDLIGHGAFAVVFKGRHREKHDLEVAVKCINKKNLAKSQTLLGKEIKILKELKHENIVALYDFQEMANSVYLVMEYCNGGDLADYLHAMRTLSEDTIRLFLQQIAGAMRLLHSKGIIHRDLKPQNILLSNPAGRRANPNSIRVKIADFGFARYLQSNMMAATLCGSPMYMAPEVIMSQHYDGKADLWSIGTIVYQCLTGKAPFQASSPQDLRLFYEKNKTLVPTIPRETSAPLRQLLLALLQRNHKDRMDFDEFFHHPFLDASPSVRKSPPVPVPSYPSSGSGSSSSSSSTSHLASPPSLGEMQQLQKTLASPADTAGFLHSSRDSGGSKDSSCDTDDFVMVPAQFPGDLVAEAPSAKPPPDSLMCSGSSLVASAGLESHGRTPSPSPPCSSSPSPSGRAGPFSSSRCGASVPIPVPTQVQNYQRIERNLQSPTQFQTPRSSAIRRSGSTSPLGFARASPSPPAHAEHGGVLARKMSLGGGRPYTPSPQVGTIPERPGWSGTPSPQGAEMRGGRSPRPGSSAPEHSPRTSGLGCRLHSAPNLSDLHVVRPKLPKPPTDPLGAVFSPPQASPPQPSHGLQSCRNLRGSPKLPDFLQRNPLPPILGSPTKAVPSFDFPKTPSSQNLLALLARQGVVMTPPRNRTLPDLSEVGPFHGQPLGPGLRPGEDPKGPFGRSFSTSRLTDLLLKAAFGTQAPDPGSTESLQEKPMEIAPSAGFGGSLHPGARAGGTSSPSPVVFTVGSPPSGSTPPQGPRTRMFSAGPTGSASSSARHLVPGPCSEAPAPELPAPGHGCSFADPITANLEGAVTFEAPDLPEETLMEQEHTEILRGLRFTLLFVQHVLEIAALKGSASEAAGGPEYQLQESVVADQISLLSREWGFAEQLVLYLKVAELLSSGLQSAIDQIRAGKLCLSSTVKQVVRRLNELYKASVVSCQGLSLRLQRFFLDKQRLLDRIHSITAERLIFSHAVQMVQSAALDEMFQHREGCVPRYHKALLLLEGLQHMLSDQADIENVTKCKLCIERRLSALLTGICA
For assay [16], the target named is MET(M1250T) (Homo sapiens, UniProt P08581, M1250T). The method in brief: as §1
Assay [17] has as its target T3, ADCK4 (Homo sapiens, UniProt Q96D53).
T3 construct: gene COQ8B
The method in brief:
as §1

For assay [18], the target named is BRSK2 (Homo sapiens, UniProt Q8IWQ3). The method in brief:
as §1

Assay [19] addresses FRK (Homo sapiens, UniProt P42685). In a few lines: as §1
In assay [20] the target is MUSK (Homo sapiens, UniProt O15146). The method in brief:
as §1

In assay [21] the target is T4, SIK (Homo sapiens, UniProt P57059).
T4 construct: gene SIK1
In a few lines:
as §1

The target of assay [22] is KIT (Homo sapiens, UniProt P10721). In a few lines:
as §1

Assay [23] deals with EGFR(L747-T751del,Sins) (Homo sapiens, UniProt P00533, DEL747-750/T751S). In a few lines: as §1
Assay [24] concerns the target SRPK3 (Homo sapiens, UniProt Q9UPE1). The method in brief:
as §1

From publication PMC7180948, “New Insights into 4-Anilinoquinazolines as Inhibitors of Cardiac Troponin I–Interacting Kinase (TNNi3K)” (Molecules, 2020) come the findings set out here.

Molecules are shown by their SMILES.

One may read the inhibition as the relative decrease from the control value, in per cent.

MUSK, sequence (O15146 whole entry): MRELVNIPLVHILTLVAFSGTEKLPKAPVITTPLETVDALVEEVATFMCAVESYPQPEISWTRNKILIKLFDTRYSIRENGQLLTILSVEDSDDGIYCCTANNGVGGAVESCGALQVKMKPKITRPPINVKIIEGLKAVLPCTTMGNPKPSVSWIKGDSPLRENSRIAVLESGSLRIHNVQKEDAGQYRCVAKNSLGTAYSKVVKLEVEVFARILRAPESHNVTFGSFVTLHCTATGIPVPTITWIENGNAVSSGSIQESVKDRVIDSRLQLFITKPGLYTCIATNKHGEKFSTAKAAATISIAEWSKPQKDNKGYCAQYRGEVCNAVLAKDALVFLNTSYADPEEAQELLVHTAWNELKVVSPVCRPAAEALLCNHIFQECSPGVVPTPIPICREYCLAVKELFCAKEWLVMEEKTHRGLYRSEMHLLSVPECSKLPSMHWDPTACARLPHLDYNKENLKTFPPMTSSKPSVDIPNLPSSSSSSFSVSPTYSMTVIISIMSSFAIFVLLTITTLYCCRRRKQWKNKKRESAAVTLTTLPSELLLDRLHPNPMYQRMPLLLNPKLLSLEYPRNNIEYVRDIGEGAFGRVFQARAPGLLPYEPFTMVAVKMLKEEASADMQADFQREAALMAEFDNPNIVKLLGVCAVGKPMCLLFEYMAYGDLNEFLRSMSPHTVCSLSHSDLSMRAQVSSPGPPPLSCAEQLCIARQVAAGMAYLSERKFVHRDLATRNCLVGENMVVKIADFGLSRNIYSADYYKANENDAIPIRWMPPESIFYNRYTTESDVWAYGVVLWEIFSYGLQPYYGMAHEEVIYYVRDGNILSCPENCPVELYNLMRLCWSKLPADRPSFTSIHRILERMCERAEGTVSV
HASPIN, sequence (Q8TF76 whole entry): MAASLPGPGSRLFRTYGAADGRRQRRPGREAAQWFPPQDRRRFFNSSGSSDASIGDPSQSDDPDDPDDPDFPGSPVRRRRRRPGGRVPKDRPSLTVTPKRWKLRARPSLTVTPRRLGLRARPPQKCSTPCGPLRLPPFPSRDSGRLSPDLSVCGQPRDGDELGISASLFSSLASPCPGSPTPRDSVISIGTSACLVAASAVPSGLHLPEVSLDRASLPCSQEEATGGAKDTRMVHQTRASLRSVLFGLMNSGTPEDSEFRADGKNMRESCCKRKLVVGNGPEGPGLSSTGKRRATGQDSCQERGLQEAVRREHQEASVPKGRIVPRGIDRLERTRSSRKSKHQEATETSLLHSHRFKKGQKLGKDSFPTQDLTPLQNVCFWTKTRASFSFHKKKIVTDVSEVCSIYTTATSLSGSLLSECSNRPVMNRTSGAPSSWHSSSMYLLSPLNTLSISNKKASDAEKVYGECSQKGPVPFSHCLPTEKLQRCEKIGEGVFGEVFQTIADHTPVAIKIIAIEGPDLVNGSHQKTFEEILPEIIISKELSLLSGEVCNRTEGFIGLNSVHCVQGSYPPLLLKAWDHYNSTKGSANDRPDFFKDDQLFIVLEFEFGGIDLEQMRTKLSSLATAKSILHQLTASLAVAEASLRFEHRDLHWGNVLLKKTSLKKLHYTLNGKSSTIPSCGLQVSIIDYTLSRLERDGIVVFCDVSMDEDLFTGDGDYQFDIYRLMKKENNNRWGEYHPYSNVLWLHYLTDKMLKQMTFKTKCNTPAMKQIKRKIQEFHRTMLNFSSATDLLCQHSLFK
ZAP70, sequence (P43403 whole entry): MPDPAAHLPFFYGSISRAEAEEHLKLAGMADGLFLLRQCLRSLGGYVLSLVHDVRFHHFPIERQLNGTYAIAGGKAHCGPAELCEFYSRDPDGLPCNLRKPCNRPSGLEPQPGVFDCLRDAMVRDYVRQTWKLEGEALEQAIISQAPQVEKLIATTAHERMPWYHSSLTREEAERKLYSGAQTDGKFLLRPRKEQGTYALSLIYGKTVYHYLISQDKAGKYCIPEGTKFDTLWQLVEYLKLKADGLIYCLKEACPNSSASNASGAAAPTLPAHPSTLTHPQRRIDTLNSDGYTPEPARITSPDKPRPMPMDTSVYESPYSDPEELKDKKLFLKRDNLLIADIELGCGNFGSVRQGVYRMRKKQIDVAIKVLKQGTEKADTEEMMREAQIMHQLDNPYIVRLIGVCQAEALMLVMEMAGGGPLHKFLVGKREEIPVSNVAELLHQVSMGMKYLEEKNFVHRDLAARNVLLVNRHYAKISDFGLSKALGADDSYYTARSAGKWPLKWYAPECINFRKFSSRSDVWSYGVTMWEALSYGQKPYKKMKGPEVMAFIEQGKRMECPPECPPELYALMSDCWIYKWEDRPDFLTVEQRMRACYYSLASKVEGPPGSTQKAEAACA
CAMK2D, sequence (Q13557 whole entry): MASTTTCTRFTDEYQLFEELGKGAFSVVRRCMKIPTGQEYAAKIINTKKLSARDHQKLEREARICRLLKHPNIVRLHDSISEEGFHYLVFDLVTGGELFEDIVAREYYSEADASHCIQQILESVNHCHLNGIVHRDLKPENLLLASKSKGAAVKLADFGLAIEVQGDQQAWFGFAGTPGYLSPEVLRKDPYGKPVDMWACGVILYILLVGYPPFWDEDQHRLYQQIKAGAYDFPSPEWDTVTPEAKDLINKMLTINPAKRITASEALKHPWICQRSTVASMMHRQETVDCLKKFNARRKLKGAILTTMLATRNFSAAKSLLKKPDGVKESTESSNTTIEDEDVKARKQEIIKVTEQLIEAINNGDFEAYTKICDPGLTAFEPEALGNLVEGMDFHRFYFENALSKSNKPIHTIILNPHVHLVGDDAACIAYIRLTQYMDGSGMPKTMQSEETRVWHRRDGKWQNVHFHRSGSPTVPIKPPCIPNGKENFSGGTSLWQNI

As for `CNS(=O)(=O)c1ccc(N(C)C)c(Nc2ncnc3cc(OC)c(OC)cc23)c1` [compound 7, 3-((6,7-dimethoxyquinazolin-4-yl)amino)-4-(dimethylamino)-N-methylbenzenesulfonamide], the inhibition at 1 µM in assay [1] was determined as 0%; in [2], 0%; in assay [3], 3%; in assay [4], 0%; in assay [5], 0%; in [6], 6%. Moreover, the inhibition at 1 µM in [7] is 53%; in assay [8], 0%; in [9], 13%; in assay [10], 0%; in assay [11], 0%; in assay [12], 20%. Also, the inhibition at 1 µM came out at 0% in assay [13]; 0% in assay [14]; 18% in assay [15]; 0% in assay [16]; 0% in assay [17]; 27% in assay [18]. Also, the inhibition at 1 µM was 0% in assay [19]; 0% in [20]; 17% in assay [21]; 13% in assay [22]; 0% in [23]; 0% in assay [24].
